{"source": "ChEMBL document CHEMBL1127259", "about": "“Synthesis of RPR 100893, prototype of a new series of potent and selective non peptide NK1 antagonists : the triarylperhydroisoindolols” (Bioorg Med Chem Lett, 1994)", "species_on_record": "Cavia porcellus", "test": "Tested for antagonism of the contractile effect on guinea pig ileum preparations", "format": "functional", "conditions": "read-out: pA2 (converted)"}
{"smiles": "COc1ccccc1[C@H](C)C(=O)N1C[C@@H]2[C@H](C1)C(c1ccccc1)(c1ccccc1)CC[C@@]2(O)c1ccccc1OC", "note": "[DAPITANT]", "values": [{"measurement": "Kb", "result": 8.91, "unit": "nM"}]}
